Assay results taken from patent US20240139199A1, “USE OF ADENINE IN PREPARATION OF DRUG FOR TREATING DIABETIC ULCERS” (Energenesis Biomedical Co., Ltd., priority 2021, published 2024).

Assays:
COX-2 = COX-2 protein expression (stated finding, no method given); type: cell-based
fibroblast = fibroblast growth inhibition (stated finding, no method given); type: cell-based
diabetic ulcers = assay: double arm, double-blind study of adenine gel in subjects with diabetic ulcers (wound healing); type: in vivo, human
Procedure: The efficacy of adenine and/or a pharmaceutically acceptable salt thereof as a therapeutic agent for diabetic ulcers was evaluated through a double arm, double-blind study as disclosed in the present disclosure. The groups consist of a 0.02% adenine gel group and a placebo group. The basic information of the subjects is shown in Table 1, while the analysis of wound healing rates based on the Wagner-[…] ulcer classification system and initial wound area size is presented in Tables 2 to 4 below, respectively. Similarly, in a double arm, double-blind study as described in Example 1, the present disclosure evaluated the effects of the disclosed adenine and/or a pharmaceutically acceptable salt thereof as a medicament for treating the diabetic ulcers.

Nc1ncnc2nc[nH]c12 [adenine]
protein expression of COX-2 (COX-2): reduce protein expression of COX-2 | fibroblast growth (fibroblast): inhibit fibroblast growth | wound healing effect (in words) (diabetic ulcers; Grade 1 and/or Grade 2 ulcers, or wound area 1.5 to 25 square centimeters): remarkably superior effects in accelerating and enhancing wound healing | scar formation (diabetic ulcers; directly administered to ulcer wounds in diabetic patients): scar formation is reduced | onset of wound healing (in words) (diabetic ulcers; results from Table 5): rapid and effective healing starting from the fourth week
